Data on 14 molecules can be found in PubChem BioAssay (NCI).

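Five concentrations, 48 hours, 96-well plates. GI50 = concentration required for 50% inhibition of growth. TGI is the concentration that stops growth completely.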

What all share (assay): NCI anticancer screen, dose series, 48 h
Assay [1] concerns SK-MEL-28 melanoma.
The test system of assay [2] is OVCAR-3 ovarian.
Assay [3] concerns MALME-3M melanoma.
Assay [4] concerns NCI-H23 lung.
Assay [5] relates to HCT-116 colon.
The subject of assay [6] is CCRF-CEM leukemia.
The test system of assay [7] is 786-0 renal.
The test system of assay [8] is MDA-N.
Assay [9] relates to HCC-2998 colon.

On to `CC12OC(C(=O)C13CCC3)C1C(=O)c3c(O)ccc(O)c3C(=O)C12` (centres undefined), for which the GI50 is 2.49 µM in [1]; 0.62 µM in assay [2]; 1.8 µM in [3]; 0.577 µM in assay [4]; 0.571 µM in assay [5]; 0.38 µM in assay [6]. For the same molecule, the TGI was 6.35 µM in assay [1]; 2.71 µM in assay [2]; 3.88 µM in assay [3]; 2.15 µM in assay [4]; 1.78 µM in [5]; above 100 µM in assay [6].

Regarding `CN(CCN1C(=O)c2cccc3cccc(c23)C1=O)CCN1C(=O)c2cccc3cccc(c23)C1=O`, the TGI in assay [1] is above 100 µM; in assay [2], 74.8 µM; in assay [3], above 100 µM; in assay [7] it was 27.5 µM; in [4], 43.7 µM; in assay [5], above 100 µM. The TGI in assay [6] is 6.91 µM.

For the molecule `CC(CCCCNC(=O)OC(C)(C)C)NC(=O)NC(C)CCCCNC(=O)OC(C)(C)C` (centres undefined), the TGI in assay [1], in assay [2], in assay [3], in [7], in assay [4] and in [8] was above 100 µM throughout. Further, the TGI in assay [5] and in assay [6] was above 100 µM in each case.

As for `CC(NC(=O)c1ccc(OP(=O)(OCc2ccc([N+](=O)[O-])o2)N(C)CCCCCl)cc1)c1ccc(OCC2CCCCC2)c(C(N)=O)c1` (centres undefined), the TGI in assay [1] is 7 µM; in [2], 15.7 µM; in assay [3], 10.7 µM; in [7], above 37.2 µM; in assay [4], above 52.2 µM; in assay [9], above 21.7 µM. Moreover, the TGI came to 24 µM in assay [8], 9.5 µM in assay [5] and 0.842 µM in assay [6].

In the case of `CCCC(=O)Nc1cc(/C=C/C(=O)N2CC(CCl)c3c2cc(OC(C)=O)c2[nH]cc(C)c32)n(C)c1` (centres undefined), the TGI in assay [3] is 9.55e-05 µM; in [4], 8.72e-05 µM; in assay [6] it was 0.000161 µM.

For `CCOC(=O)c1cccc(N=Nc2ncc(/C=C/C(=O)OC)[nH]2)c1`, the TGI in assay [1] was above 100 µM; in assay [2], 71.1 µM; in assay [3] it was 70.3 µM; in assay [7] it was above 100 µM; in [4], above 100 µM; in assay [9], 43.8 µM. In addition, the TGI is above 100 µM in assay [8], 69.7 µM in assay [5] and above 100 µM in assay [6].

As for `O=C1/C(=C/c2ccc([N+](=O)[O-])cc2)Sc2scc(-c3cccc([N+](=O)[O-])c3)[n+]21`, the TGI in assay [2] is 15.2 µM; in assay [3], 3.22 µM; in assay [7], 4.96 µM; in [4], 42 µM; in assay [9], 19.1 µM; in assay [8], 15.7 µM. The values for the TGI in assay [5] and in [6] were 18.1 µM and 1.3 µM, respectively.

As for `CN(CCCNC(=O)c1nn(-c2ccccc2)c2c1Cc1ccccc1-2)CCCNC(=O)c1nn(-c2ccccc2)c2c1Cc1ccccc1-2`, the TGI in assay [1] turned out to be 2.77 µM; in assay [2], 3.13 µM; in assay [3] it was 2.91 µM; in assay [7] it was 2.9 µM; in assay [4], 3.03 µM; in assay [9] it was 2.77 µM. Moreover, the values for the TGI in [8], in assay [5] and in assay [6] were 2.66 µM, 2.87 µM and 2.42 µM, respectively.

In the case of `COc1cc(/C=C2\CC3C4CC[C@H]5C[C@@H](O)CC[C@]5(C)C4CC[C@]3(C)\C2=N\O)cc(OC)c1OC` (some centres undefined), the TGI is 66.9 µM in assay [1]; 11 µM in [2]; 42.8 µM in assay [3]; 34.8 µM in [7]; above 100 µM in assay [4]; 38.6 µM in assay [9]. The TGI in [8] was 41.9 µM; in [5], 21.4 µM; in assay [6], above 100 µM.

As to `CC(C)(C)COS(=O)OCC(C)(C)C`, the TGI in assay [1], in [2], in assay [3], in assay [7], in assay [4] and in [9] was above 100 µM each time. Also, the TGI in assay [8], in [5] and in assay [6] was above 100 µM throughout.

`CC1(C)CC(C(=O)OCCCCCCCCCCC[P+](c2ccccc2)(c2ccccc2)c2ccccc2)C(C)(C)N1O` (centres undefined): the GI50 is 0.653 µM in assay [1]; 0.132 µM in assay [2]; 0.271 µM in assay [4]; 0.324 µM in [9]; 0.185 µM in assay [5]; 0.11 µM in [6]. Moreover, the TGI in [1] came to 1.97 µM; in [2], 0.835 µM; in [4] it was 1.68 µM; in assay [9], 1.52 µM; in assay [5] it was 1.08 µM; in assay [6], 0.766 µM.

In the case of `Oc1ccc(Cl)cc1C1=Nn2c(COc3ccc4c(c3)CCCC4)nnc2SC1`, the TGI in assay [1] is 14.4 µM; in assay [2] it was 29.8 µM; in [3], above 100 µM; in assay [4], 26.9 µM; in assay [8] it was 30.2 µM; in assay [5], 19.4 µM. This molecule also had a TGI in [6] of 46.3 µM.

As for `CCOC(=O)/C=C/C1=C(Br)[C@@]2(C)CC[C@@H]3c4ccc(O)cc4CC[C@H]3[C@@H]2C1`, the TGI was determined as 30 µM in assay [1]; 20.5 µM in assay [2]; 24.3 µM in assay [3]; 25.4 µM in assay [7]; 26.6 µM in [4]; 28.8 µM in assay [9]. In addition, the TGI in assay [8] worked out at 26.7 µM; in assay [5] it was 26.6 µM; in assay [6], 32.3 µM.

For the molecule `CN(CCc1ccccn1)c1ccc2c(c1)Cc1ccccc1-2`, the TGI was above 100 µM in [1]; above 100 µM in assay [2]; 93.7 µM in assay [3]; above 100 µM in [7]; above 100 µM in assay [4]; above 100 µM in assay [9]. Further, the TGI is above 100 µM in assay [5] and 68.8 µM in assay [6].
